# Test results from publication PMC5903342 (Oxidative Medicine and Cellular Longevity, 2018).
# Entries after “also recorded” stand apart in the source; their conditions may differ.
# Legend:
# [1] = DPPH free radical scavenging assay; assay type: biochemical; conditions: absorbance at 517 nm
# Description: The free radical scavenging activity was measured by following microplate procedures as previously described. One hundred microliters of the sample dilutions with five concentration levels (varying from 0 to 2000 μM in DMSO) was added to two identical groups of wells in a 96-well microplate. The same volume of 0.1 mM DPPH-methanol solution was added to each well of one group (samples), and methanol ([…]) was added to the other group (blanks). The control was prepared by mixing the DPPH-methanol solution with the sample solvent or butylated hydroxytoluene (BHT). The solutions were mixed thoroughly, covered, and allowed to react in the dark at room temperature for 40 min. The absorbance was measured at 517 nm using a microplate reader (Quant, BioTek Instruments Inc.), and the scavenging activity was calculated from the absorbance values according to the following equation: […]. The antioxidant properties of the samples were expressed as half the maximal effective concentrations (EC50) obtained by interpolation from the linear regression analysis. BHT was used as the positive control.
# [2] = test system: Salmonella enterica serovar typhimurium TA104; experiment: Antimutagenicity assay (Salmonella/microsome), strain TA104; assay type: cell-based; conditions: TA104, cotreatment
# Source text: (§1) Salmonella enterica serovar typhimurium (S. typhimurium) strains TA100, TA1535, TA104, and TA102 from the authors' laboratory stock were used as described by Maron and Ames in the antimutagenicity assay.
# (§2) We carried out the coexposure protocol of the antimutagenicity assay to investigate the potential of the compound to protect against alkylation-mediated genetic mutation in S. typhimurium TA100, TA102, TA104, and TA1535 strains according to Ajith and Soja. The test proceeded both in the absence and presence of a metabolic activation system (4% S9 mix, Aroclor preinduced, from MOLTOX Inc., USA). DMSO 1% served as the negative control. […] The mixtures were incubated in a shaker at 37°C (preincubation) under light protection. After a total of 60 min of cotreatment, the mixtures were added to and mixed with 2 mL top agar containing 0.05 mmol/L L-histidine and D-biotin for the S. typhimurium strains. Each of these was then spread on a minimal glucose agar (1.5% agar, Vogel-Bonner medium E, containing 2% glucose) plate. After the top agar solidified, the plates were incubated at 37°C for 60–72 h. Each tester strain was assayed in triplicate and repeated at least twice, and the number of revertant colonies was counted for each tester strain and treatment group. The counts of revertant colonies were obtained to build a dose-response curve and calculate the percentage of reduction.
# [3] = test system: Salmonella enterica serovar typhimurium TA1535; experiment: Antimutagenicity assay (Salmonella/microsome), strain TA1535; assay type: cell-based; conditions: TA1535, cotreatment
# Source text: as §1, §2
# [4] = test system: Salmonella enterica serovar typhimurium TA100; experiment: Antimutagenicity assay (Salmonella/microsome), strain TA100 (co-, pre- and posttreatment); assay type: cell-based
# [5] = test system: HepG2 cells; experiment: Cytoprotective assay of HepG2 cells (WST-1, coexposure with alkylating agent at LC50); assay type: cell-based, Human; conditions: 24 h coexposure with 20 μM MMS, AVA at 1.0 and 10.0 μM
# Description: After 24 h of coexposure, the culture medium was replaced by a 90 μL fresh culture medium and 10 μL WST-1 and incubated at 37°C and 5% CO2 for 2 h. The absorbance was then measured following the protocol as described before. The survival rates were determined in comparison to the negative control.
# [6] = +S9, CPA (150 μM), atorvastatin 20 μM
# [7] = +S9, CPA (150 μM), atorvastatin 100 μM
# [8] = +S9, CPA (150 μM), atorvastatin 200 μM
# [9] = +S9, CPA (150 μM), atorvastatin 200 μM, listed as Atorvastatin
# [10] = +S9, CPA (150 μM), atorvastatin 1000 μM
# [11] = +S9, CPA (150 μM), atorvastatin 1000 μM, listed as Atorvastatin
# [12] = −S9, MMS (100 μM), atorvastatin 20 μM
# [13] = −S9, MMS (100 μM), atorvastatin 100 μM
# [14] = −S9, MMS (100 μM), atorvastatin 200 μM
# [15] = −S9, MMS (100 μM), atorvastatin 1000 μM
# [16] = TA100, cotreatment, +S9, CPA (150 μM), atorvastatin 20 μM
# [17] = TA100, cotreatment, +S9, CPA (150 μM), atorvastatin 100 μM
# [18] = TA100, cotreatment, +S9, CPA (150 μM), atorvastatin 200 μM
# [19] = TA100, cotreatment, +S9, CPA (150 μM), atorvastatin 1000 μM
# [20] = TA100, cotreatment, −S9, MMS (100 μM), atorvastatin 20 μM
# [21] = TA100, cotreatment, −S9, MMS (100 μM), atorvastatin 100 μM
# [22] = TA100, cotreatment, −S9, MMS (100 μM), atorvastatin 200 μM
# [23] = TA100, cotreatment, −S9, MMS (100 μM), atorvastatin 1000 μM
# [24] = TA100, posttreatment, +S9, CPA (150 μM), atorvastatin 20 μM
# [25] = TA100, posttreatment, +S9, CPA (150 μM), atorvastatin 200 μM
# [26] = TA100, posttreatment, +S9, CPA (150 μM), atorvastatin 1000 μM
# [27] = TA100, posttreatment, −S9, MMS (100 μM), atorvastatin 20 μM
# [28] = TA100, posttreatment, −S9, MMS (100 μM), atorvastatin 100 μM
# [29] = TA100, posttreatment, −S9, MMS (100 μM), atorvastatin 200 μM
# [30] = TA100, posttreatment, −S9, MMS (100 μM), atorvastatin 1000 μM
# [31] = TA100, pretreatment, +S9, CPA (150 μM), atorvastatin 20 μM
# [32] = TA100, pretreatment, +S9, CPA (150 μM), atorvastatin 100 μM
# [33] = TA100, pretreatment, +S9, CPA (150 μM), atorvastatin 200 μM
# [34] = TA100, pretreatment, +S9, CPA (150 μM), atorvastatin 1000 μM
# [35] = TA100, pretreatment, −S9, MMS (100 μM), atorvastatin 20 μM
# [36] = TA100, pretreatment, −S9, MMS (100 μM), atorvastatin 100 μM
# [37] = TA100, pretreatment, −S9, MMS (100 μM), atorvastatin 200 μM
# [38] = TA100, pretreatment, −S9, MMS (100 μM), atorvastatin 1000 μM
compound,measurement,setting,value
"CC(C)c1c(C(=O)Nc2ccccc2)c(-c2ccccc2)c(-c2ccc(F)cc2)n1CC[C@@H](O)C[C@@H](O)CC(=O)O [AVA, atorvastatin]",EC50,[1],274 ± 3 µM
same,% reduction,[2]; [6],19.29%
same,His+ (revertant colonies),[2]; [6],969 ± 54
same,% reduction,[2]; [7],25%
same,His+ (revertant colonies),[2]; [7],933 ± 38
same,% reduction,"[2]; +S9, CPA (150 μM), atorvastatin 100 μM, listed as Atorvastatin",25.00^∗ %
same,% reduction,[2]; [8],29%
same,His+ (revertant colonies),[2]; [8],905 ± 42
same,% reduction,[2]; [9],29.29^∗ %
same,% reduction,[2]; [10],41%
same,His+ (revertant colonies),[2]; [10],829 ± 11
same,% reduction,[2]; [11],41.43^∗ %
same,% reduction,[2]; [12],19.36%
same,His+ (revertant colonies),[2]; [12],801 ± 32
same,% reduction,[2]; [13],24.19%
same,His+ (revertant colonies),[2]; [13],776 ± 64
same,% reduction,[2]; [14],32.3%
same,His+ (revertant colonies),[2]; [14],736 ± 91
same,% reduction,"[2]; −S9, MMS (100 μM), atorvastatin 200 μM, listed as Atorvastatin",32.26^∗ %
same,% reduction,[2]; [15],55.7%
same,His+ (revertant colonies),[2]; [15],620 ± 28
same,% reduction,"[2]; −S9, MMS (100 μM), atorvastatin 1000 μM, listed as Atorvastatin",55.65^∗ %
same,% reduction,[3]; [6],9.44%
same,His+ (revertant colonies),[3]; [6],53 ± 3
same,% reduction,[3]; [7],11.11%
same,His+ (revertant colonies),[3]; [7],52 ± 7
same,% reduction,[3]; [8],30.6%
same,His+ (revertant colonies),[3]; [8],45 ± 4
same,% reduction,[3]; [9],30.56^∗ %
same,% reduction,[3]; [10],42.2%
same,His+ (revertant colonies),[3]; [10],41 ± 8
same,% reduction,[3]; [11],42.22^∗ %
same,% reduction,[3]; [12],45.65^∗ %
same,His+ (revertant colonies),[3]; [12],50 ± 4
same,% reduction,[3]; [13],67.39^∗ %
same,His+ (revertant colonies),[3]; [13],40 ± 5
same,% reduction,[3]; [14],86.95^∗ %
same,His+ (revertant colonies),[3]; [14],31 ± 2
same,% reduction,[3]; [15],91.30^∗ %
same,His+ (revertant colonies),[3]; [15],29 ± 3
same,% reduction,[4]; [16],2.65%
same,His+ (revertant colonies),[4]; [16],235 ± 22
same,% reduction,[4]; [17],6.19%
same,His+ (revertant colonies),[4]; [17],230 ± 31
same,% reduction,[4]; [18],11.50%
same,His+ (revertant colonies),[4]; [18],224 ± 15
same,% reduction,[4]; [19],17.70%
same,His+ (revertant colonies),[4]; [19],216 ± 25
same,% reduction,[4]; [20],7.14%
same,His+ (revertant colonies),[4]; [20],204 ± 18
same,% reduction,[4]; [21],12.5%
same,His+ (revertant colonies),[4]; [21],198 ± 22
same,% reduction,[4]; [22],19.64%
same,His+ (revertant colonies),[4]; [22],190 ± 13
same,% reduction,[4]; [23],23.21%
same,His+ (revertant colonies),[4]; [23],186 ± 14
same,Reduction of DNA injuries caused by MMS or CPA,"[4]; TA100, posttreatment",not able to reduce
same,% reduction,[4]; [24],12.04%
same,His+ (revertant colonies),[4]; [24],257 ± 5
same,% reduction,"[4]; TA100, posttreatment, +S9, CPA (150 μM), atorvastatin 100 μM",17.44%
same,% reduction,[4]; [25],18.49%
same,His+ (revertant colonies),[4]; [25],216 ± 8
same,% reduction,[4]; [26],21.48%
same,His+ (revertant colonies),[4]; [26],207 ± 23
same,% reduction,[4]; [27],5.69%
same,His+ (revertant colonies),[4]; [27],257 ± 26
same,% reduction,[4]; [28],11.86%
same,His+ (revertant colonies),[4]; [28],248 ± 23
same,% reduction,[4]; [29],20.10%
same,His+ (revertant colonies),[4]; [29],237 ± 22
same,% reduction,[4]; [30],23.00%
same,His+ (revertant colonies),[4]; [30],233 ± 26
same,% reduction,[4]; [31],79.4^∗ %
same,His+ (revertant colonies),[4]; [31],130 ± 30
same,% reduction,[4]; [32],81.6^∗ %
same,His+ (revertant colonies),[4]; [32],127 ± 19
same,% reduction,[4]; [33],92.59^∗ %
same,His+ (revertant colonies),[4]; [33],111 ± 9
same,% reduction,[4]; [34],97.92^∗ %
same,His+ (revertant colonies),[4]; [34],103 ± 2
same,Antimutagenic activity,"[4]; TA100, pretreatment, all concentrations, presence and absence of metabolic conditions",exerted antimutagenic activity
same,% reduction,[4]; [35],45.97^∗ %
same,His+ (revertant colonies),[4]; [35],171 ± 14
same,% reduction,[4]; [36],88.57^∗ %
same,His+ (revertant colonies),[4]; [36],117 ± 2
same,% reduction,[4]; [37],91.43^∗ %
same,His+ (revertant colonies),[4]; [37],113 ± 6
same,% reduction,[4]; [38],98.7^∗ %
same,His+ (revertant colonies),[4]; [38],103 ± 4
same,Cytoprotective effect (survival of HepG2 coexposed to MMS),[5],significant protection; also recorded: significant cytoprotective effect
